Measured values: US4804681A, “Metal complexes having an antineoplastic action and medicaments containing these complexes” (priority 1980, dated 1989)

What was measured:
sarcoma 180 tumor cells = assay: Sarcoma 180 tumor model (i.p.), median survival time T/C; assay type: in vivo, female NMRI mice; conditions: for T/C (median survival time) / cure rate (cured animals/treated animals): single dose
Protocol: 1. Sarcoma 180 tumor model
In each case about 10^6 sarcoma 180 tumor cells in 0.2 ml of physiological saline solution are transferred intraperitoneally (I.P.) to female NMRI mice which are about 6 weeks old and weigh 18 to 20 g. The tumor is kept in passage in the same mouse strain. The tumor cells are removed from freshly killed animals immediately before transplantation. On inoculation, the animals are randomized. 6 mice are used per dosage. Cisplatin and cyclophosphamide are used as the control substances. The number of control groups (untreated animals) is chosen such that it corresponds to about the square root of the total number of groups. The substances are injected intraperitoneally, in each case 24 hours after the transplantation, as suspensions in customary solubilizing agents, such as Tween® (polyoxyethylene derivatives of sorbitan esters).
The stated dose was administered once at the start of the experiment, as described. The factor T/C given in per cent denotes the percentage increase in median survival time of the treated animals compared with the median survival time of the untreated control animals. In some cases, the cure rate, that is to say the number of cured animals in relation to the number of treated animals, is given in the Table, in parentheses after the factor T/C.
The experiment is discontinued as soon as the median survival time T/C of the treated animals has reached 300% of the median survival time of the untreated animals. In calculating the median survival time, the animals still alive at the end of the experiment are taken as being dead at the end of the experiment.

Yoshida sarcoma cells = assay: subcutaneously transplanted Yoshida sarcoma, intravenous therapy; assay type: in vivo, female SD rats
Protocol: In a further experiment, about 5×10^6 Yoshida sarcoma cells were subcutaneously transplanted into female SD rats on day 0. In the second week, 4 mg/kg of dichlorobis(benzoylacetonato)titanium(IV) as a Tween® 60 coprecipitate (1:20) in aqueous solution were administered intravenously twice. […] The recidives were treated intravenously twice weekly with the original dose for four weeks.

sarcoma 180 cells = assay: subcutaneously transplanted sarcoma 180, intravenous therapy; assay type: in vivo, female mice; conditions: 4 mg/kg i.v. as Tween 60 coprecipitate (1:20), twice weekly for 4 weeks, from 2nd week
Protocol: In a further experiment, about 5×10^6 sarcoma 180 cells were subcutaneously transplanted into twelve female mice on day 0. From the 2nd week after the transplantation, six animals were given intravenous therapy with 4 mg/kg of dichlorobis(benzoylacetonato)titanium(IV) as a Tween® 60 coprecipitate (1:20) in aqueous solution, twice weekly for 4 weeks.

ascitic Ehrlich tumors = conditions: mice; cited from earlier work
[1] = system: testicular tumors, ovarian tumors, oat-cell carcinomas; conditions: cited from earlier work
[2] = 4 mg/kg i.v. as Tween 60 coprecipitate (1:20), twice in second week

## CC(=O)C=C([O][Hf]([Cl])([Cl])[O]C(=CC(C)=O)c1ccccc1)c1ccccc1 [Dichlorobis(benzoylacetonato)hafnium(IV)]
Sarcoma 180 tumor cells; 114 mg/kg i.p.
  T/C (median survival time): 130%
Sarcoma 180 tumor cells; 172 mg/kg i.p.
  T/C (median survival time): 267%
Sarcoma 180 tumor cells; 246 mg/kg i.p.
  T/C (median survival time): 300%

## CC(=O)[CH-]C(=O)c1ccccc1.CC(=O)[CH-]C(=O)c1ccccc1.[Cl-].[Cl-].[Ti+4] [Dichlorobis(benzoylacetonato)titanium(IV)]
Yoshida sarcoma cells; [2]
  recidives after three weeks (plum-sized): two out of three animals
  tumor regression: The tumor regressed
Yoshida sarcoma cells; 4 mg/kg i.v. as Tween 60 coprecipitate (1:20), twice in second week, three animals
  cured animals after first treatment: One animal was cured
Yoshida sarcoma cells; original dose i.v. twice weekly for four weeks, two animals with recidives
  cured animals after treatment of recidives: Both animals were cured
Sarcoma 180 tumor cells; 4 mg/kg i.p.
  T/C (median survival time): 118%
  cure rate (cured animals/treated animals): 0/6
Sarcoma 180 tumor cells; 16 mg/kg i.p.
  T/C (median survival time): 115%
  cure rate (cured animals/treated animals): 0/6
Sarcoma 180 tumor cells; 41 mg/kg i.p.
  T/C (median survival time): 291%
  cure rate (cured animals/treated animals): 2/6
Sarcoma 180 tumor cells; 57 mg/kg i.p.
  T/C (median survival time): 179%
  cure rate (cured animals/treated animals): 0/6
Sarcoma 180 tumor cells; 82 mg/kg i.p.
  T/C (median survival time): 300%
  cure rate (cured animals/treated animals): 4/6
Sarcoma 180 tumor cells; 123 mg/kg i.p.
  T/C (median survival time): 212%
  cure rate (cured animals/treated animals): 1/6
Sarcoma 180 tumor cells; 177 mg/kg i.p.
  T/C (median survival time): 251%
  cure rate (cured animals/treated animals): 1/6
Sarcoma 180 tumor cells; 259 mg/kg i.p.
  T/C (median survival time): 300%
  cure rate (cured animals/treated animals): 5/6
Sarcoma 180 cells
  outcome of treatment: cured at the end of therapy

## CC(=O)C=C([O][Zr]([Cl])([Cl])[O]C(=CC(C)=O)c1ccccc1)c1ccccc1 [dichlorobis(benzoylacetonato)zirconium(IV)]
Sarcoma 180 tumor cells; 31 mg/kg i.p.
  T/C (median survival time): 234%
Sarcoma 180 tumor cells; 46 mg/kg i.p.
  T/C (median survival time): 300%
Sarcoma 180 tumor cells; 68 mg/kg i.p.
  T/C (median survival time): 300%
Sarcoma 180 tumor cells; 97 mg/kg i.p.
  T/C (median survival time): 300%
Sarcoma 180 tumor cells; 145 mg/kg i.p.
  T/C (median survival time): 193%
Sarcoma 180 tumor cells; 208 mg/kg i.p.
  T/C (median survival time): 144%

## CC(=O)[CH-]C(=O)c1ccccc1.CC(=O)[CH-]C(=O)c1ccccc1.[Br-].[Br-].[Ti+4] [Dibromobis(benzoylacetonato)titanium(IV)]
Sarcoma 180 tumor cells; 5 mg/kg i.p.
  T/C (median survival time): 103%
  cure rate (cured animals/treated animals): 0/6
Sarcoma 180 tumor cells; 20 mg/kg i.p.
  T/C (median survival time): 115%
  cure rate (cured animals/treated animals): 0/6
Sarcoma 180 tumor cells; 50 mg/kg i.p.
  T/C (median survival time): 288%
  cure rate (cured animals/treated animals): 1/6
Sarcoma 180 tumor cells; 70 mg/kg i.p.
  T/C (median survival time): 300%
  cure rate (cured animals/treated animals): 3/6
Sarcoma 180 tumor cells; 100 mg/kg i.p.
  T/C (median survival time): 300%
  cure rate (cured animals/treated animals): 3/6
Sarcoma 180 tumor cells; 150 mg/kg i.p.
  T/C (median survival time): 300%
  cure rate (cured animals/treated animals): 4/6
Sarcoma 180 tumor cells; 215 mg/kg i.p.
  T/C (median survival time): 273%
  cure rate (cured animals/treated animals): 1/6
Sarcoma 180 tumor cells; 315 mg/kg i.p.
  T/C (median survival time): 300%
  cure rate (cured animals/treated animals): 5/6

## CC(=O)C=C([O][Zr]([Br])([Br])[O]C(=CC(C)=O)c1ccccc1)c1ccccc1 [dibromobis(benzoylacetonato)zirconium(IV)]
Sarcoma 180 tumor cells; 54 mg/kg i.p.
  T/C (median survival time): 300%
Sarcoma 180 tumor cells; 80 mg/kg i.p.
  T/C (median survival time): 300%
Sarcoma 180 tumor cells; 126 mg/kg i.p.
  T/C (median survival time): 191%
Sarcoma 180 tumor cells; 172 mg/kg i.p.
  T/C (median survival time): 172%
Sarcoma 180 tumor cells; 247 mg/kg i.p.
  T/C (median survival time): 184%

## [Cl-].[Cl-].[Hf+4].c1cc[cH-]c1.c1cc[cH-]c1 [hafnocene dichloride]
Ascitic Ehrlich tumors
  action on ascitic Ehrlich tumors: inhibiting action

## [Cl][Zr+2][Cl].c1cc[cH-]c1.c1cc[cH-]c1 [zirconocene dichloride]
Ascitic Ehrlich tumors
  action on ascitic Ehrlich tumors: inhibiting action

## CC(=O)C=C([O][Zr]([Br])([O]C(=CC(C)=O)c1ccccc1)[O]C(=CC(C)=O)c1ccccc1)c1ccccc1 [Bromotris(benzoylacetonato)zirconium(IV)]
Sarcoma 180 tumor cells; 92 mg/kg i.p.
  T/C (median survival time): 300%
Sarcoma 180 tumor cells; 209 mg/kg i.p.
  T/C (median survival time): 297%
Sarcoma 180 tumor cells; 471 mg/kg i.p.
  T/C (median survival time): 187%

## CC(=O)[CH-]C(=O)c1ccccc1.CC(=O)[CH-]C(=O)c1ccccc1.[F-].[F-].[Ti+4] [Difluorobis(benzoylacetonato)titanium(IV)]
Sarcoma 180 tumor cells; 4 mg/kg i.p.
  T/C (median survival time): 97%
  cure rate (cured animals/treated animals): 0/6
Sarcoma 180 tumor cells; 15 mg/kg i.p.
  T/C (median survival time): 115%
  cure rate (cured animals/treated animals): 0/6
Sarcoma 180 tumor cells; 38 mg/kg i.p.
  T/C (median survival time): 209%
  cure rate (cured animals/treated animals): 1/6
Sarcoma 180 tumor cells; 52 mg/kg i.p.
  T/C (median survival time): 300%
  cure rate (cured animals/treated animals): 4/6
Sarcoma 180 tumor cells; 75 mg/kg i.p.
  T/C (median survival time): 154%
  cure rate (cured animals/treated animals): 0/6
Sarcoma 180 tumor cells; 113 mg/kg i.p.
  T/C (median survival time): 300%
  cure rate (cured animals/treated animals): 3/6
Sarcoma 180 tumor cells; 162 mg/kg i.p.
  T/C (median survival time): 300%
  cure rate (cured animals/treated animals): 4/6
Sarcoma 180 tumor cells; 238 mg/kg i.p.
  T/C (median survival time): 300%
  cure rate (cured animals/treated animals): 2/6

## titanocene dichloride
Ascitic Ehrlich tumors
  action on ascitic Ehrlich tumors: inhibiting action

## N.N.[Cl][Pt][Cl] [cisplatin, cis-diamminedichloroplatinum(II), reference compound]
[1]; after only a single therapeutic dose
  renal damage and damage to hearing: found with considerable frequency
[1]
  nausea and retching: long-lasting severe nausea
[1]; testicular tumors, ovarian tumors, oat-cell carcinomas
  antitumor activity: extremly potent antitumor agent
Sarcoma 180 tumor cells; 1 mg/kg i.p.
  T/C (median survival time): 112%
  cure rate (cured animals/treated animals): 0/6
Sarcoma 180 tumor cells; 2 mg/kg i.p.
  T/C (median survival time): 133%
  cure rate (cured animals/treated animals): 0/6
Sarcoma 180 tumor cells; 3 mg/kg i.p.
  T/C (median survival time): 300%
  cure rate (cured animals/treated animals): 2/6
Sarcoma 180 tumor cells; 5 mg/kg i.p.
  T/C (median survival time): 300%
  cure rate (cured animals/treated animals): 5/6
Sarcoma 180 tumor cells; 8 mg/kg i.p.
  T/C (median survival time): 300%
  cure rate (cured animals/treated animals): 6/6
Sarcoma 180 tumor cells; 13 mg/kg i.p.
  T/C (median survival time): 300%
  cure rate (cured animals/treated animals): 6/6
Sarcoma 180 tumor cells; 22 mg/kg i.p.
  T/C (median survival time): 42%
  cure rate (cured animals/treated animals): 0/6
Sarcoma 180 tumor cells; about 20 mg/kg
  median survival time compared with untreated controls: shorter than that of the untreated control animals
Sarcoma 180 tumor cells; about 8 to 10 mg/kg
  cure of animals: most of the animals are cured
